One may read the IC50 as the point on the concentration scale where inhibition reaches its midpoint. A higher IC50 goes with a need for much substance.

Consider 26 molecules from patent publication US10919911B2, “Tricyclic ASK1 inhibitors” (Terns, Inc., priority 2018, dated 2021).

Each structure is given as a SMILES string.

This test has as its target ASK1 kinase (Homo sapiens (Human), UniProt Q99683). The test is described as follows: RBC Kinase Assay (33P-ATP radiometric, myelin basic protein substrate). In kind it is biochemical. Conditions: 20 ng ASK1 kinase, MBP substrate, 120 min at room temperature, 1% DMSO. How it is done: Example B1. RBC Kinase Assay Protocol
Base Reaction buffer: 20 mM Hepes (pH 7.5), 10 mM MgCl2, 1 mM EGTA, 0.02% Brij35, 0.02 mg/ml BSA, 0.1 mM Na3VO4, 2 mM DTT, and 1% DMSO were used for the assay.
Myelin base protein (MPB) was prepared in freshly prepared Base Reaction Buffer. 20 ng of ASK1 kinase was delivered into the substrate solution and gently mixed. Compounds in DMSO were delivered into the kinase reaction mixture (final DMSO concentration 1%). Commercially available 33P-ATP was delivered into the reaction mixture to initiate the reaction. The kinase reaction was incubated for 120 min. at room temperature. Reactions were spotted onto P81 ion exchange paper (Whatman #3698-915). Filters were washed extensively in 0.75% Phosphoric acid. Radioactivity on filters was read, and IC50 values were determined.

Sequence of ASK1 kinase (Q99683 whole entry): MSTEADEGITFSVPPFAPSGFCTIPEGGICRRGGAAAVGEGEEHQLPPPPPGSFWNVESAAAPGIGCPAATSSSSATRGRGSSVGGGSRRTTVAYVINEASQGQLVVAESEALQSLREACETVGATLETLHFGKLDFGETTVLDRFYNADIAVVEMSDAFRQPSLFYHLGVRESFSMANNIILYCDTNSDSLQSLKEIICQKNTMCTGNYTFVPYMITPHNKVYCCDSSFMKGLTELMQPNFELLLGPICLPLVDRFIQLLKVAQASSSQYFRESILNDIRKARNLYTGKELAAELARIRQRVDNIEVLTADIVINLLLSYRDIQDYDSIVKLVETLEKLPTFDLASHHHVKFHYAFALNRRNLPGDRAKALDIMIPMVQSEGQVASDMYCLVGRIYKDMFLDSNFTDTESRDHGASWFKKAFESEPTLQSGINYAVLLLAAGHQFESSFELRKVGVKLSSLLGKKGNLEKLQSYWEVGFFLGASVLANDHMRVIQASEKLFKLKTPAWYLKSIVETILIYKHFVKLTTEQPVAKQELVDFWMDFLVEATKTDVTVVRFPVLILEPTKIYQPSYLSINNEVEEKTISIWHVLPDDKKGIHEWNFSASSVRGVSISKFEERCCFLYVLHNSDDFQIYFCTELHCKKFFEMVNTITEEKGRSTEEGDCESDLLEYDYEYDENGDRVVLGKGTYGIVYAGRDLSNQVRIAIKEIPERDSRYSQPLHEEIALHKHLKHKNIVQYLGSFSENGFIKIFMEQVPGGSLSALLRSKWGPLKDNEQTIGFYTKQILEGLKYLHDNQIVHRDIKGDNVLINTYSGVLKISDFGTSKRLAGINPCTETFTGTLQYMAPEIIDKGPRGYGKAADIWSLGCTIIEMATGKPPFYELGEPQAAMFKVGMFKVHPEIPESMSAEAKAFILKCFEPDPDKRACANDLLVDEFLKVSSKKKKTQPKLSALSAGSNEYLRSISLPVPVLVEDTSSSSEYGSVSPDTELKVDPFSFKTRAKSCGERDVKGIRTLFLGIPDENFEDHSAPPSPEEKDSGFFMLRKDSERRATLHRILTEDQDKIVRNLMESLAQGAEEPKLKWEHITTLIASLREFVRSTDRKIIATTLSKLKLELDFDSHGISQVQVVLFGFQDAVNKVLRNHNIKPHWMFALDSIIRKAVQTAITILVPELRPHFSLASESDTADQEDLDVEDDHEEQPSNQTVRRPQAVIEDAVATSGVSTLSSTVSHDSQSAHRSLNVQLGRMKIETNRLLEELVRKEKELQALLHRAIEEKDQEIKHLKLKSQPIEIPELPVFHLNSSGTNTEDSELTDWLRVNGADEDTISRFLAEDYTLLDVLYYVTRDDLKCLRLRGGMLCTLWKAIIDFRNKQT

Take `Cc1cc(F)c(C(=O)Nc2cccc3c2OC[C@@H](C2CC2)n2nnnc2-3)cc1-n1cnc(C2CC2)c1` [Example 12, (R)-5-(4-cyclopropyl-1H-imidazol-1-yl)-N-(5-cyclopropyl-5,6-dihydrobenzo[f]tetrazolo[1,5-d][1,4]oxazepin-8-yl)-2-fluoro-4-methylbenzamide]: the IC50 stood at 4.7 nM.

Molecule `Cc1cc(F)c(C(=O)Nc2cccc3c2OCC(C)(C)n2nnnc2-3)cc1-n1cnc(C2CC2)c1` [Example 13, 5-(4-cyclopropyl-1H-imidazol-1-yl)-N-(5,5-dimethyl-5,6-dihydrobenzo[f]tetrazolo[1,5-d][1,4]oxazepin-8-yl)-2-fluoro-4-methylbenzamide] showed an IC50 of 5.2 nM.

Molecule `Cc1cc(F)c(C(=O)Nc2cccc3c2OCC2(CC2)n2nnnc2-3)cc1-n1cnc(C2CC2)c1` [Example 14, 5-(4-cyclopropyl-1H-imidazol-1-yl)-2-fluoro-4-methyl-N-(6H-spiro[benzo[f]tetrazolo[1,5-d][1,4]oxazepine-5,1′-cyclopropan]-8-yl)benzamide] had an IC50 of 4.2 nM.

The molecule `O=C(Nc1cccc2c1OCC(CO)n1cnnc1-2)c1cc(-n2cnc(C3CC3)c2)ccn1` (centres unmarked) [Example 15, 4-(4-cyclopropyl-1H-imidazol-1-yl)-N-(5-(hydroxymethyl)-5,6-dihydrobenzo[f][1,2,4]triazolo[4,3-d][1,4]oxazepin-8-yl)picolinamide] registered an IC50 of 5.8 nM.

Regarding `Cc1cc(F)c(C(=O)Nc2cccc3c2OC[C@H](CO)n2cnnc2-3)cc1-n1cnc(C2CC2)c1` [Example 16, (S)-5-(4-cyclopropyl-1H-imidazol-1-yl)-2-fluoro-N-(5-(hydroxymethyl)-5,6-dihydrobenzo[f][1,2,4]triazolo[4,3-d][1,4]oxazepin-8-yl)-4-methylbenzamide], the IC50 is 5.2 nM.

Take `Cc1cc(F)c(C(=O)Nc2cccc3c2OC[C@@H](CO)n2nnnc2-3)cc1-n1cnc(C2CC2)c1` [Example 17, (R)-5-(4-cyclopropyl-1H-imidazol-1-yl)-2-fluoro-N-(5-(hydroxymethyl)-5,6-dihydrobenzo[f]tetrazolo[1,5-d][1,4]oxazepin-8-yl)-4-methylbenzamide]: the half-inhibitory concentration (IC50) is 10.9 nM.

The molecule `O=C(Nc1cccc2c1OC[C@@H](CO)n1nnnc1-2)c1cc(-n2cnc(C3CC3)c2)ccn1` [Example 18, (R)-4-(4-cyclopropyl-1H-imidazol-1-yl)-N-(5-(hydroxymethyl)-5,6-dihydrobenzo[f]tetrazolo[1,5-d][1,4]oxazepin-8-yl)picolinamide] gave an IC50 of 11.6 nM.

For the molecule `C[C@@H]1COc2c(NC(=O)c3cc(-n4cnc(C5CC5)c4)c(N4CCOCC4)cn3)cccc2-c2nnnn21` [Example 19, (R)-4-(4-cyclopropyl-1H-imidazol-1-yl)-N-(5-methyl-5,6-dihydrobenzo[f]tetrazolo[1,5-d][1,4]oxazepin-8-yl)-5-morpholinopicolinamide], the concentration for half-maximal inhibition (IC50) came to 2.2 nM.

Take `O=C(Nc1cccc2c1OCC1(CC1)n1nnnc1-2)c1cc(-n2cnc(C3CC3)c2)c(N2CCOCC2)cn1` [Example 20, 4-(4-cyclopropyl-1H-imidazol-1-yl)-5-morpholino-N-(6H-spiro[benzo[f]tetrazolo[1,5-d][1,4]oxazepine-5,1′-cyclopropan]-8-yl)picolinamide]: half-maximal inhibition (IC50) was put at 6 nM.

On to `O=C(Nc1cccc2c1OCCn1nnnc1-2)c1cc(-n2cnc(C3CC3)c2)c(N2CCOCC2)cn1` [Example 21, 4-(4-cyclopropyl-1H-imidazol-1-yl)-N-(5,6-dihydrobenzo[f]tetrazolo[1,5-d][1,4]oxazepin-8-yl)-5-morpholinopicolinamide], for which the IC50 turned out to be 6 nM.

Molecule `C[C@H]1COc2c(NC(=O)c3cc(-n4cnc(C5CC5)c4)c(N4CCOCC4)cn3)cccc2-c2nnnn21` [Example 22, (S)-4-(4-cyclopropyl-1H-imidazol-1-yl)-N-(5-methyl-5,6-dihydrobenzo[f]tetrazolo[1,5-d][1,4]oxazepin-8-yl)-5-morpholinopicolinamide] gave an IC50 of 0.6 nM.

Molecule `Cc1cc(F)c(C(=O)Nc2cccc3c2OC[C@H](CO)n2nnnc2-3)cc1-n1cnc(C2CC2)c1` [Example 23, (S)-5-(4-cyclopropyl-1H-imidazol-1-yl)-2-fluoro-N-(5-(hydroxymethyl)-5,6-dihydrobenzo[f]tetrazolo[1,5-d][1,4]oxazepin-8-yl)-4-methylbenzamide] registered a half-inhibitory concentration (IC50) of 0.9 nM. This IC50 is about 1.5-fold higher than that of the molecule before.

`O=C(Nc1cccc2c1OC[C@H](CO)n1nnnc1-2)c1cc(-n2cnc(C3CC3)c2)ccn1` [Example 24, (S)-4-(4-cyclopropyl-1H-imidazol-1-yl)-N-(5-(hydroxymethyl)-5,6-dihydrobenzo[f]tetrazolo[1,5-d][1,4]oxazepin-8-yl)picolinamide] returned an IC50 of 6.2 nM.

Take `O=C(Nc1cccc2c1OCC1(CC1)n1cnnc1-2)c1cc(-n2cnc(C3CC3)c2)c(N2CCOCC2)cn1` [Example 25, 4-(4-cyclopropyl-1H-imidazol-1-yl)-5-morpholino-N-(6H-spiro[benzo[f][1,2,4]triazolo[4,3-d][1,4]oxazepine-5,1′-cyclopropan]-8-yl)picolinamide]: the IC50 was found to be 3.3 nM.

The molecule `Cc1cc(F)c(C(=O)Nc2cccc3c2OC[C@H](CF)n2nnnc2-3)cc1-n1cnc(C2CC2)c1` [Example 26, (R)-5-(4-cyclopropyl-1H-imidazol-1-yl)-2-fluoro-N-(5-(fluoromethyl)-5,6-dihydrobenzo[f]tetrazolo[1,5-d][1,4]oxazepin-8-yl)-4-methylbenzamide] showed an IC50 of 8 nM.

`O=C(Nc1cccc2c1OC[C@H](CF)n1nnnc1-2)c1cc(-n2cnc(C3CC3)c2)ccn1` [Example 27, (R)-4-(4-cyclopropyl-1H-imidazol-1-yl)-N-(5-(fluoromethyl)-5,6-dihydrobenzo[f]tetrazolo[1,5-d][1,4]oxazepin-8-yl)picolinamide] displayed an IC50 of 6.8 nM.

Consider `Cc1cc(F)c(C(=O)Nc2cccc3c2OC[C@@H](CF)n2cnnc2-3)cc1-n1cnc(C2CC2)c1` [Example 28, (S)-5-(4-cyclopropyl-1H-imidazol-1-yl)-2-fluoro-N-(5-(fluoromethyl)-5,6-dihydrobenzo[f][1,2,4]triazolo[4,3-d][1,4]oxazepin-8-yl)-4-methylbenzamide], for which the IC50 was determined as 4.5 nM.

In turn, `O=C(Nc1cccc2c1OC[C@@H](CF)n1cnnc1-2)c1cc(-n2cnc(C3CC3)c2)ccn1` [Example 29, (S)-4-(4-cyclopropyl-1H-imidazol-1-yl)-N-(5-(fluoromethyl)-5,6-dihydrobenzo[f][1,2,4]triazolo[4,3-d][1,4]oxazepin-8-yl)picolinamide] displayed an IC50 of 4.1 nM.

Molecule `Cc1cc(F)c(C(=O)Nc2cccc3c2OC[C@@H](CF)n2nnnc2-3)cc1-n1cnc(C2CC2)c1` [Example 30, (S)-5-(4-cyclopropyl-1H-imidazol-1-yl)-2-fluoro-N-(5-(fluoromethyl)-5,6-dihydrobenzo[f]tetrazolo[1,5-d][1,4]oxazepin-8-yl)-4-methylbenzamide] came in with an IC50 of 4.5 nM.

On to `O=C(Nc1cccc2c1OC[C@@H](CF)n1nnnc1-2)c1cc(-n2cnc(C3CC3)c2)ccn1` [Example 31, (S)-4-(4-cyclopropyl-1H-imidazol-1-yl)-N-(5-(fluoromethyl)-5,6-dihydrobenzo[f]tetrazolo[1,5-d][1,4]oxazepin-8-yl)picolinamide], for which the IC50 stood at 5.7 nM.

Turning to `Cc1cc(F)c(C(=O)Nc2cccc3c2OC[C@H](CF)n2cnnc2-3)cc1-n1cnc(C2CC2)c1` [Example 32, (R)-5-(4-cyclopropyl-1H-imidazol-1-yl)-2-fluoro-N-(5-(fluoromethyl)-5,6-dihydrobenzo[f][1,2,4]triazolo[4,3-d][1,4]oxazepin-8-yl)-4-methylbenzamide], half-maximal inhibition (IC50) was put at 3.1 nM.

For the molecule `O=C(Nc1cccc2c1OC[C@H](CF)n1cnnc1-2)c1cc(-n2cnc(C3CC3)c2)ccn1` [Example 33, (R)-4-(4-cyclopropyl-1H-imidazol-1-yl)-N-(5-(fluoromethyl)-5,6-dihydrobenzo[f][1,2,4]triazolo[4,3-d][1,4]oxazepin-8-yl)picolinamide], 4.1 nM corresponded to half-maximal inhibition (IC50). This IC50 and that of the molecule before are within 1.5-fold of each other.

Molecule `Cc1cc(F)c(C(=O)Nc2cccc3c2O[C@H](C)Cn2cnnc2-3)cc1-n1cnc(C2CC2)c1` [Example 34, (R)-5-(4-cyclopropyl-1H-imidazol-1-yl)-2-fluoro-4-methyl-N-(6-methyl-5,6-dihydrobenzo[f][1,2,4]triazolo[4,3-d][1,4]oxazepin-8-yl)benzamide] had an IC50 of 4.1 nM.

In turn, `Cc1cc(F)c(C(=O)Nc2cccc3c2O[C@@H](C)Cn2cnnc2-3)cc1-n1cnc(C2CC2)c1` [Example 35, (S)-5-(4-cyclopropyl-1H-imidazol-1-yl)-2-fluoro-4-methyl-N-(6-methyl-5,6-dihydrobenzo[f][1,2,4]triazolo[4,3-d][1,4]oxazepin-8-yl)benzamide] yielded an IC50 of 2.5 nM.

In the case of `CC1(C)COc2c(NC(=O)c3cc(-n4cnc(C5CC5)c4)c(N4CCOCC4)cn3)cccc2-c2nncn21` [Example 36, 4-(4-cyclopropyl-1H-imidazol-1-yl)-N-(5,5-dimethyl-5,6-dihydrobenzo[f][1,2,4]triazolo[4,3-d][1,4]oxazepin-8-yl)-5-morpholinopicolinamide], the IC50 stood at 5.6 nM. Compared with the last molecule, the IC50 is about 2.2-fold higher.

Consider `CC1(C)COc2c(NC(=O)c3cc(-n4cnc(C5CC5)c4)c(N4CCOCC4)cn3)cccc2-c2nnnn21` [Example 37, 4-(4-cyclopropyl-1H-imidazol-1-yl)-N-(5,5-dimethyl-5,6-dihydrobenzo[f]tetrazolo[1,5-d][1,4]oxazepin-8-yl)-5-morpholinopicolinamide], for which the IC50 came to 0.5 nM.
